US20080039515A1, “Arylpyrazoles And Methods Of Using Same For Control Of Insect Pests That Bore Into Trees” (The Texas A&M University System, priority 2004, published 2008)
Read-outs that look alike come from different tables or passages of the source.

Experiments:
[1] = test system: loblolly pine trees, Pinus taeda L.; settings: in vivo
Protocol: Treatment Methods: Trial 1: Loblolly pine trees, Pinus taeda L., 15-20 cm (=6-9 inch) diameter at breast height (DBH), were selected in March of the study year in a 20-year-old pine stand in east Texas (Angelina County). Each treatment was injected into four cardinal points about 0.3 m above the ground on each of 15 trees in April (16th-23rd) using the Arborjet Tree IV™ microinfusion system (Arborjet, Inc. Woburn, Mass.).
At the time of tree felling, a section of lower bole (˜60-80 cm) containing the injection points was taken from each injected tree. The bark was later removed around the injection points to determine if any damage had resulted from the installation of plugs and/or injection of chemicals. If damage was found, the length and width of any ‘lesions’ (discolored areas on the surface of the xylem) were measured.

Ips engraver beetles = assay: Trial 2 single-tree protection study: Ips attack, tree mortality and gallery construction on standing loblolly pine; format: in vivo; parameters: Length of Egg Galleries Total: unit not given here; settings: for trees with early signs of fading crowns (number of 6 trees): 24 days after initial pheromone deployment; for Length of Egg Galleries Total / Length of Egg Galleries With Brood / Length of Egg Galleries With Brood % of Total / Length of Egg Galleries Without Brood / Length of Egg Galleries Without Brood % of Total / Number of Egg Galleries Total / Number of Egg Galleries With Brood % of Total / Number of Egg Galleries With Brood No. / Number of Egg Galleries Without Brood % of Total / Number of Egg Galleries Without Brood No. / Nuptial Chambers With Egg Galleries % of Total / Nuptial Chambers With Egg Galleries No. / Nuptial Chambers Without Egg Galleries % of Total / Nuptial Chambers Without Egg Galleries No. / Total Nuptial Chambers: logs cut after tree mortality or end of trial; for Mean # of Ips caught/trap / Number of Attacks/0.3 m bole section at 3 m after 24 days: Ips: standing loblolly pine; for Number of Attacks/0.3 m bole section at 3 m after 24 days: Ips: 24 days after pheromone deployment
Protocol: Study Sites: Two 20-year-old, recently thinned loblolly pine plantations were selected in Texas. Trees in one plantation were injected for use in a bolt study (Trial 1). Trees in ½ acre section of the second plantation were injected as part of a single-tree protection study (Trial 2). A staging area also was set up in the second plantation where bolts from the first plantation were exposed to bark beetles and wood borers.
Population Monitoring: A clear panel of acetate (10 cm wide by 25 cm long) was attached to the center of each bolt after deployment of bolts or 2 m high on standing trees after deployment of pheromone baits to monitor arrival of bark beetles. The top surface of each panel was coated entirely with Stikem Special® trapping compound (Michel and Pelton, Emeryville, Calif.). The traps were left in place for two weeks.
Trial 2: Loblolly pine, 15-20 cm (=6-9 inch) DBH, also were selected in March of the study year in a recently thinned 20-year-old pine stand in east Texas. Each treatment (the same as those used in Trial 1) was injected into four cardinal points about 0.3 m above the ground on each of 6 trees in April (16th-23rd) using the Arborjet Tree IV™ system.
After 5 weeks post-injection (May 28), frills were cut with a hatchet into the sapwood between the injection points near the base of the tree. A cellulose. sponge was inserted into each cut and loaded with I0 ml of a 4:1 mix of sodium N-methyldithiocarbamate (MS) (Woodfume®; Osmose, Inc., Buffalo, N.Y.) plus dimethyl sulfoxide (DMSO) (Aldrich Chemical) (Roton 1987, Strom et al. 2004). […] The intent was to stress the tree and make it susceptible to attack by bark beetles without killing it. Pheromone packets containing racemic ipsdienol+lanerione, ipsenol or cis-verbenol were attached (June 7) atop 3 m stakes evenly spaced in between and around the study trees to encourage attack by the three Ips engraver species. […] The baits were changed every 4 weeks.
Trial 2. […] All visible Ips attacks and cerambycid egg niches were counted within the marked area. The number of trees with fading crowns also was recorded. Thereafter, the trees were evaluated weekly for crown fading. When mortality did occur, the trees were felled and two bolts taken and evaluated for attack success and gallery length as described in Trial 1. […] Treatment efficacy was determined by comparing tree survival, beetle attacks and egg gallery length on treated and untreated bolts. As before, data were transformed and analyzed by GLM and the Fisher's Protected LSD test using the Statview statistical program.

[2] = After 24 days from pheromone bait deployment

## O=[N+]([O-])NC1=NCCN1Cc1ccc(Cl)nc1 [Imid]
[1]; 1 month
  Lesion Length: 7.3 b cm
  Lesion Width: 1.7 a cm
[1]; 3 months
  Lesion Length: 6.1 a cm
  Lesion Width: 1.3 cm
Ips engraver beetles
  trees with early signs of fading crowns (number of 6 trees): 3 of 6
  Mean # of Ips caught/trap: 8.5
  Number of Attacks/0.3 m bole section at 3 m after 24 days: Ips: 12.7
Ips engraver beetles; [2]
  Pct of Trees w/Fading Crowns: 50.0 Pct
Ips engraver beetles; After 32 days
  Pct of Trees w/Fading Crowns: 83.3 Pct
Ips engraver beetles; After 39 days
  Pct of Trees w/Fading Crowns: 83.3 Pct
Ips engraver beetles; After 46 days
  Pct of Trees w/Fading Crowns: 83.3 Pct
Ips engraver beetles; After 52 days
  Pct of Trees w/Fading Crowns: 100.0 Pct
Ips engraver beetles; After 59 days
  Pct of Trees w/Fading Crowns: 100.0 Pct
Ips engraver beetles; After 66 days
  Pct of Trees w/Fading Crowns: 100.0 Pct
Ips engraver beetles; bolt height 3 m
  Length of Egg Galleries Total: 301.5
  Length of Egg Galleries With Brood: 121.7 cm
  Length of Egg Galleries With Brood % of Total: 40.4%
  Length of Egg Galleries Without Brood: 179.8 cm
  Length of Egg Galleries Without Brood % of Total: 59.6%
  Number of Egg Galleries Total: 38.2
  Number of Egg Galleries With Brood % of Total: 28.8%
  Number of Egg Galleries With Brood No.: 11.0
  Number of Egg Galleries Without Brood % of Total: 71.2%
  Number of Egg Galleries Without Brood No.: 27.2
  Nuptial Chambers With Egg Galleries % of Total: 98.0%
  Nuptial Chambers With Egg Galleries No.: 8.0
  Nuptial Chambers Without Egg Galleries % of Total: 2.0%
  Nuptial Chambers Without Egg Galleries No.: 0.2
  Total Nuptial Chambers: 8.2
Ips engraver beetles; bolt height 8 m
  Length of Egg Galleries Total: 217.5
  Length of Egg Galleries With Brood: 115.5 cm
  Length of Egg Galleries With Brood % of Total: 53.1%
  Length of Egg Galleries Without Brood: 102.0 cm
  Length of Egg Galleries Without Brood % of Total: 46.9%
  Number of Egg Galleries Total: 33.2
  Number of Egg Galleries With Brood % of Total: 42.7%
  Number of Egg Galleries Without Brood % of Total: 57.3%
  Number of Egg Galleries Without Brood No.: 19.0
  Nuptial Chambers With Egg Galleries % of Total: 78.7%
  Nuptial Chambers With Egg Galleries No.: 9.8
  Nuptial Chambers Without Egg Galleries % of Total: 21.3%
  Nuptial Chambers Without Egg Galleries No.: 2.7
  Total Nuptial Chambers: 12.5
Ips engraver beetles; standing trees, after 66 days
  trees died due to bark beetle attack: 100%

## N#Cc1nn(-c2c(Cl)cc(C(F)(F)F)cc2Cl)c(N)c1[S+]([O-])C(F)(F)F (centres unmarked) [Fip, 5-amino-3-cyano-1-(2,6-dichloro-4-trifluoromethylphenyl)-4-trifluoromethylsulfinylpyrazole]
[1]; 1 month
  Lesion Length: 4.1 a cm
  Lesion Width: 1.5 a cm
[1]; 3 months
  Lesion Length: 4.1 a cm
  Lesion Width: 1.4 cm
Ips engraver beetles
  trees with early signs of fading crowns (number of 6 trees): None
  Mean # of Ips caught/trap: 5.2
  Number of Attacks/0.3 m bole section at 3 m after 24 days: Ips: 1.3
Ips engraver beetles; [2]
  Pct of Trees w/Fading Crowns: 0.0 Pct
Ips engraver beetles; After 32 days
  Pct of Trees w/Fading Crowns: 0.0 Pct
Ips engraver beetles; After 39 days
  Pct of Trees w/Fading Crowns: 0.0 Pct
Ips engraver beetles; After 46 days
  Pct of Trees w/Fading Crowns: 0.0 Pct
Ips engraver beetles; After 52 days
  Pct of Trees w/Fading Crowns: 0.0 Pct
Ips engraver beetles; After 59 days
  Pct of Trees w/Fading Crowns: 0.0 Pct
Ips engraver beetles; After 66 days
  Pct of Trees w/Fading Crowns: 0.0 Pct
Ips engraver beetles; bolt height 3 m
  Length of Egg Galleries Total: 6.0
  Length of Egg Galleries With Brood: 2.5 cm
  Length of Egg Galleries With Brood % of Total: 41.7%
  Length of Egg Galleries Without Brood: 3.5 cm
  Length of Egg Galleries Without Brood % of Total: 58.3%
  Number of Egg Galleries Total: 1.2
  Number of Egg Galleries With Brood % of Total: 14.3%
  Number of Egg Galleries With Brood No.: 0.2
  Number of Egg Galleries Without Brood % of Total: 85.7%
  Number of Egg Galleries Without Brood No.: 1.0
  Nuptial Chambers With Egg Galleries % of Total: 18.9%
  Nuptial Chambers With Egg Galleries No.: 1.2
  Nuptial Chambers Without Egg Galleries % of Total: 81.1%
  Nuptial Chambers Without Egg Galleries No.: 5.0
  Total Nuptial Chambers: 6.2
Ips engraver beetles; bolt height 8 m
  Length of Egg Galleries Total: 22.7
  Length of Egg Galleries With Brood: 2.5 cm
  Length of Egg Galleries With Brood % of Total: 11.0%
  Length of Egg Galleries Without Brood: 20.2 cm
  Length of Egg Galleries Without Brood % of Total: 89.0%
  Number of Egg Galleries Total: 7.7
  Number of Egg Galleries With Brood % of Total: 6.5%
  Number of Egg Galleries With Brood No.: 0.5
  Number of Egg Galleries Without Brood % of Total: 93.5%
  Number of Egg Galleries Without Brood No.: 7.2
  Nuptial Chambers With Egg Galleries % of Total: 66.7%
  Nuptial Chambers With Egg Galleries No.: 3.0
  Nuptial Chambers Without Egg Galleries % of Total: 33.3%
  Nuptial Chambers Without Egg Galleries No.: 1.5
  Total Nuptial Chambers: 4.5
Ips engraver beetles; standing trees, end of trial (66 days)
  tree survival: survived
